Assay results from patent US20180200257A1, “METHODS FOR THE TREATMENT OF INFLAMMATORY DISORDERS” (Galapagos NV, priority 2015, published 2018).

System: subjects with moderately to severely active RA who have an inadequate response to methotrexate (MTX)
Test: Study 2 (monotherapy) - Creatinine levels
Type: in vivo, human
Description: Randomized, double-blind, placebo-controlled, multicenter, phase IIb dose finding study of Compound 1 (dosed as a [Compound 1:HCl:3H2O]) administered for 24 weeks as monotherapy to subjects with moderately to severely active rheumatoid arthritis who have an inadequate response to methotrexate alone
Double-blind, placebo-controlled, monotherapy study in subjects with moderately to severely active RA who have an inadequate response to methotrexate (MTX) (oral or parenteral).
280 subjects randomized to one of 3 doses of Compound 1 (dosed as a [Compound 1:HCl:3H2O]) or to placebo, given once daily (q.d.).
Twelve weeks of treatment with Compound 1 (dosed as a [Compound 1:HCl:3H2O]) at 50 mg, 100 mg, or 200 mg q.d.; or placebo. At Week 12, all subjects on placebo and the subjects on the 50 mg dose who have not achieved 20% improvement in swollen joint count (SJC66) and tender joint count (TJC68) will be assigned to 100 mg q.d. in a blinded fashion and will continue treatment until Week 24. Subjects in the other groups will maintain their randomized treatment until Week 24.
Creatinine levels determination is available at Quest Diagnostics, Clinical Trials, Quest House, 125-135 Staines Road, Hounslow, Middlesex, TW3 3JB, United Kingdom under Catalogue n# 82565. For Study 3, the data are obtained at BARC Europe, 3B,Industrie Park, Zwijnaarde, B-9052 Ghent, Belgium.
The Enzymatic method is based on the determination of sarcosine after conversion of creatinine with the aid of creatininase, creatinase, and sarcosine oxidase. The liberated hydrogen peroxide reacts with 4-aminophenazone and HTIB to form a quinone imine chromogen. The reaction is catalyzed by peroxidase. The color intensity is directly proportional to concentration of creatinine present and can be measured photometrically.
Subjects in the other groups maintained their randomized treatment until Week 24.

[1] = 100 mg q.d. (N = 70), 24 weeks results, week 12
[2] = 100 mg q.d. (N = 70), 24 weeks results, week 16
[3] = 100 mg q.d. (N = 70), 24 weeks results, week 20
[4] = 100 mg q.d. (N = 70), 24 weeks results, week 24
[5] = 200 mg q.d. (N = 69), 24 weeks results, week 0
[6] = 200 mg q.d. (N = 69), 24 weeks results, week 1
[7] = 200 mg q.d. (N = 69), 24 weeks results, week 2
[8] = 200 mg q.d. (N = 69), 24 weeks results, week 4
[9] = 200 mg q.d. (N = 69), 24 weeks results, week 8
[10] = 200 mg q.d. (N = 69), 24 weeks results, week 12
[11] = 200 mg q.d. (N = 69), 24 weeks results, week 16
[12] = 200 mg q.d. (N = 69), 24 weeks results, week 20
[13] = 200 mg q.d. (N = 69), 24 weeks results, week 24
[14] = placebo switching to 100 mg q.d. at week 12 (N = 72), week 16
[15] = placebo switching to 100 mg q.d. at week 12 (N = 72), week 20
[16] = placebo switching to 100 mg q.d. at week 12 (N = 72), week 24

O=C(Nc1nc2cccc(-c3ccc(CN4CCS(=O)(=O)CC4)cc3)n2n1)C1CC1 [Compound 1, cyclopropanecarboxylic acid {5-[4-(1,1-dioxo-thiomorpholin-4-ylmethyl)-phenyl]-[1,2,4]triazolo[1,5-a]pyridin-2-yl}-amide]
Creatinine Mean percentage CFB (100 mg q.d. (N = 70), 24 weeks results, week 8): 5.79%
Creatinine Mean CFB [1]: 1.7 µmol/L
Creatinine Mean percentage CFB [1]: 3.96%
Creatinine Mean CFB [2]: 2.9 µmol/L
Creatinine Mean percentage CFB [2]: 6.44%
Creatinine Mean CFB [3]: 2.3 µmol/L
Creatinine Mean percentage CFB [3]: 4.63%
Creatinine Mean CFB [4]: 2.0 µmol/L
Creatinine Mean percentage CFB [4]: 4.17%
Creatinine Mean CFB (100 mg q.d. (N = 70), week 0): 0.00 µmol/L
Creatinine Mean percentage CFB (100 mg q.d. (N = 70), week 0): 0.00%
Creatinine Mean CFB (100 mg q.d. (N = 70), week 1): 1.19 µmol/L
Creatinine Mean percentage CFB (100 mg q.d. (N = 70), week 1): 3.00%
Creatinine Mean CFB (100 mg q.d. (N = 70), week 2): 1.48 µmol/L
Creatinine Mean percentage CFB (100 mg q.d. (N = 70), week 2): 3.21%
Creatinine Mean CFB (100 mg q.d. (N = 70), week 4): 1.10 µmol/L
Creatinine Mean percentage CFB (100 mg q.d. (N = 70), week 4): 3.23%
Creatinine Mean CFB (100 mg q.d. (N = 70), week 8): 3.19 µmol/L
Creatinine Mean percentage CFB (100 mg q.d. (N = 70), week 8): 5.79%
Creatinine Mean CFB (100 mg q.d. (N = 70), week 12): 1.75 µmol/L
Creatinine Mean percentage CFB (100 mg q.d. (N = 70), week 12): 3.96%
Creatinine Mean CFB [5]: 0.0 µmol/L
Creatinine Mean percentage CFB [5]: 0.00%
Creatinine Mean CFB [6]: 4.7 µmol/L
Creatinine Mean percentage CFB [6]: 8.07%
Creatinine Mean CFB [7]: 5.0 µmol/L
Creatinine Mean percentage CFB [7]: 8.56%
Creatinine Mean CFB [8]: 4.3 µmol/L
Creatinine Mean percentage CFB [8]: 7.37%
Creatinine Mean CFB [9]: 4.8 µmol/L
Creatinine Mean percentage CFB [9]: 8.70%
Creatinine Mean CFB [10]: 3.8 µmol/L
Creatinine Mean percentage CFB [10]: 7.96%
Creatinine Mean CFB [11]: 5.3 µmol/L
Creatinine Mean percentage CFB [11]: 9.81%
Creatinine Mean CFB [12]: 6.6 µmol/L
Creatinine Mean percentage CFB [12]: 13.11%
Creatinine Mean CFB [13]: 3.5 µmol/L
Creatinine Mean percentage CFB [13]: 8.41%
Creatinine Mean CFB (200 mg q.d. (N = 69), week 0): 0.00 µmol/L
Creatinine Mean percentage CFB (200 mg q.d. (N = 69), week 0): 0.00%
Creatinine Mean CFB (200 mg q.d. (N = 69), week 1): 4.68 µmol/L
Creatinine Mean percentage CFB (200 mg q.d. (N = 69), week 1): 8.07%
Creatinine Mean CFB (200 mg q.d. (N = 69), week 2): 4.99 µmol/L
Creatinine Mean percentage CFB (200 mg q.d. (N = 69), week 2): 8.56%
Creatinine Mean CFB (200 mg q.d. (N = 69), week 4): 4.28 µmol/L
Creatinine Mean percentage CFB (200 mg q.d. (N = 69), week 4): 7.37%
Creatinine Mean CFB (200 mg q.d. (N = 69), week 8): 4.82 µmol/L
Creatinine Mean percentage CFB (200 mg q.d. (N = 69), week 8): 8.70%
Creatinine Mean CFB (200 mg q.d. (N = 69), week 12): 3.80 µmol/L
Creatinine Mean percentage CFB (200 mg q.d. (N = 69), week 12): 7.96%
Creatinine Mean CFB [14]: 1.9 µmol/L
Creatinine Mean percentage CFB [14]: 3.61%
Creatinine Mean CFB [15]: 2.7 µmol/L
Creatinine Mean percentage CFB [15]: 5.14%
Creatinine Mean CFB [16]: 4.6 µmol/L
Creatinine Mean percentage CFB [16]: 8.41%
